Laboratory results reported in patent US12290535B2, “Langerin+ cell targeting” (Max-Planck-Gesellschaft zur Förderung der Wissenschaften …, priority 2018, dated 2025).

Experiments:
DC-SIGN CRD = experiment: 19F R2-filtered NMR reporter displacement assay transferred to DC-SIGN; assay type: binding; details: Ki Langerin compared to Ki DC-SIGN
Experimental: (§1) Langerin and DC-SIGN carbohydrate recognition domain. Expression and purification were conducted as previously published. Briefly, the monomeric ^15N-labeled Langerin and DC-SIGN carbohydrate recognition domains (CRDs) were expressed insolubly in E. coli BL21* (DE3) (Invitrogen). Following enzymatic cell lysis, inclusion bodies were harvested and subsequently solubilized. The sample was centrifuged and the Langerin and DC-SIGN CRDs were refolded overnight via rapid dilution. Next, the sample was dialyzed overnight, centrifuged and purified via StrepTactin affinity chromatography (Iba). After an additional dialysis step overnight, the sample was centrifuged and the buffer was exchanged to 25 mM HEPES with 150 mM NaCl at pH 7.0 using 7 kDa size-exclusion desalting columns (Thermo Scientific) for ^19F R2-filtered and ^15N HSQC NMR experiments. The concentration of Langerin and DC-SIGN CRDs was determined via UV spectroscopy (A280, 0.1%=3.19 and A280, 0.1%=2.98). Purity and monodispersity of Langerin and DC-SIGN CRD samples were analyzed via SDS PAGE and DLS.
General remarks. ^19F R2-filtered NMR experiments were conducted on a PremiumCompact 600 MHz spectrometer (Agilent). […] Apparent relaxation rates R2,obs for the reporter ligand were determined using the CPMG pulse sequence as previously published (Wamhoff, E. C. et al. (19)F Nmr-Guided Design of Glycomimetic Langerin Ligands. ACS Chem Biol, 11, 2407-13 (2016): Carr, H. Y. & Purcell, E. M. Effects of Diffusion on Free Precession in Nuclear Magnetic Resonance Experiments. Phys Rev, 94, 630-638 (1954); Meiboom, S. & Gill, D. Modified Spin-Echo Method for Measuring Nuclear Relaxation Times. Rev Sci Instrum 29, 688-691 (1958)).
Assay development for DC-SIGN. […] Briefly, the KD value and the relaxation rate in bound state R2,b were determined at five concentrations [L]T of reporter ligand 24 in three independent titration experiments. […]
Ki determination. Ki values were determined as previously published for Langerin (Wamhoff, E. C. et al. (19)F NMR-Guided Design of Glycomimetic Langerin Ligands. ACS Chem Biol 11, 2407-13 (2016)). […]

Langerin CRD = molecular target: T1, Langerin CRD (Homo sapiens, UniProt Q9UJ71, V278A); experiment: 15N HSQC NMR titration (KD determination); assay type: binding
T1 construct: residues 193 to 328; made in house; host or cells: E. coli BL21* (DE3)
Experimental: as §1, with “After an additional dialysis step overnight, the sample was centrifuged and the buffer was exchanged to 25 mM HEPES with 150 mM NaCl at pH 7.0 using 7 kDa size-exclusion desalting columns (Thermo Scientific) for ^19F R2-filtered and ^15N HSQC NMR experiments.” left out, “DLS. […]” for “DLS.”
KD determination. KD values were determined in titration experiments at six ligand concentrations [L]T. Samples were prepared via serial dilution. Chemical shift perturbations CSPs for Langerin CRD resonances in the fast or fast-to-intermediate exchange regime observed upon titration with ligand were calculated via Equation 1 (Williamson, M. P. Using Chemical Shift Perturbation to Characterise Ligand Binding. Prog Nucl Magn Reson Spectrosc 73, 1-16 (2013)). […]

T1 sequence (Q9UJ71 193-328 V278A): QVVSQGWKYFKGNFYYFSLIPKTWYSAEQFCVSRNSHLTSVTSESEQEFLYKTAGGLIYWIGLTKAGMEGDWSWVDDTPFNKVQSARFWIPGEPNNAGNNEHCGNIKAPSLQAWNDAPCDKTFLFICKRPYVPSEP

specificity for DC-SIGN over Langerin (DC-SIGN CRD): 3.7 fold
Kd (Langerin CRD): 12 ± 1 mM
Structure (SMILES): CC(=O)NCCO[C@H]1O[C@H](CO)[C@@H](O)[C@H](O)[C@@H]1O [Man analog 21]
